Results taken from PubChem BioAssay AID282 (DTP/NCI, 2004).
Several values for one entry are separate records, joined by “and”; a condition that tells them apart may be missing. Equal entries are not always repeated. Inconclusive results and toxic doses are left out. The calls were made as follows: active = survival T/C of 150% or more; inactive = T/C below 125% in these data.

Test system: BDF1 mice, L1210 terephthalanilide-resistant leukemia ip, survival T/C
Test: NCI In Vivo Anticancer Drug Screen. Data for tumor model L1210 Leukemia resistant to A Terephthalanilide; NSC 38280 (intraperitoneal) in B6D2F1 (BDF1) mice
Details: endpoint: mean survival time, higher = longer survival
Procedure: The antitumor activity of compounds was measured in mice bearing transplantable tumors. Survival or tumor size were measured and the results are expressed as the measurement made in the treated group (T) divided by the measurement made in the vehicle treated control group (C). The tumor model used in this assay is L1210 Leukemia resistant to A Terephthalanilide; NSC 38280 (intraperitoneal) in B6D2F1 (BDF1) mice

[1] = dose: 62.5 micrograms/kg/injection, schedule: Q01DX010 (ip), vehicle: saline
[2] = dose: 125.0 micrograms/kg/injection, schedule: Q01DX010 (ip), vehicle: saline
[3] = dose: 2.0 mg/kg/injection, schedule: Q01DX Z (ip), vehicle: carboxymethylcellulose (CMC)
[4] = dose: 4.0 mg/kg/injection, schedule: Q01DX Z (ip), vehicle: carboxymethylcellulose (CMC)
[5] = dose: 5.0 mg/kg/injection, schedule: Q01DX Z (ip), vehicle: carboxymethylcellulose (CMC)

Measured: T/C

CS(=O)(=O)OCC(O)C(O)COS(C)(=O)=O (stereo not given)
inactive: dose: 25.0 mg/kg/injection, schedule: Q01DX Z (ip), vehicle: carboxymethylcellulose (CMC) 107 % of control | dose: 50.0 mg/kg/injection, schedule: Q01DX Z (ip), vehicle: carboxymethylcellulose (CMC) 103 % of control | dose: 100.0 mg/kg/injection, schedule: Q01DX Z (ip), vehicle: carboxymethylcellulose (CMC) 103 % of control | dose: 200.0 mg/kg/injection, schedule: Q01DX010 (ip), vehicle: saline 101 % of control | dose: 200.0 mg/kg/injection, schedule: Q01DX Z (ip), vehicle: carboxymethylcellulose (CMC) 101 % of control | dose: 250.0 mg/kg/injection, schedule: Q01DX Z (ip), vehicle: carboxymethylcellulose (CMC) 100 % of control | dose: 375.0 mg/kg/injection, schedule: Q01DX Z (ip), vehicle: carboxymethylcellulose (CMC) 111 % of control | dose: 400.0 mg/kg/injection, schedule: Q01DX010 (ip), vehicle: saline 97 % of control | dose: 800.0 mg/kg/injection, schedule: Q01DX010 (ip), vehicle: saline 91 % of control

O=C(Nc1ccc(C2=NCCCN2)cc1)c1ccc(NC(=O)c2ccc(C3=NCCCN3)cc2)cc1
inactive: dose: 2.0 mg/kg/injection, schedule: Q01DX010 (ip), vehicle: other 110 % of control and 112 % of control | dose: 4.0 mg/kg/injection, schedule: Q01DX010 (ip), vehicle: other 123 % of control | dose: 8.0 mg/kg/injection, schedule: Q01DX010 (ip), vehicle: other 102 % of control

Clc1ccc(C(c2ccccc2Cl)C(Cl)Cl)cc1 (stereo not given)
inactive: dose: 62.5 mg/kg/injection, schedule: Q01DX Z (sc), vehicle: steriod suspending solution 102 % of control | dose: 125.0 mg/kg/injection, schedule: Q01DX Z (sc), vehicle: steriod suspending solution 104 % of control | dose: 250.0 mg/kg/injection, schedule: Q01DX Z (sc), vehicle: steriod suspending solution 93 % of control | dose: 500.0 mg/kg/injection, schedule: Q01DX Z (sc), vehicle: steriod suspending solution 102 % of control | dose: 750.0 mg/kg/injection, schedule: Q01DX Z (sc), vehicle: steriod suspending solution 100 % of control | dose: 1000.0 mg/kg/injection, schedule: Q01DX Z (sc), vehicle: steriod suspending solution 95 % of control | dose: 1200.0 mg/kg/injection, schedule: Q01DX Z (sc), vehicle: steriod suspending solution 94 % of control | dose: 1500.0 mg/kg/injection, schedule: Q01DX Z (sc), vehicle: steriod suspending solution 91 % of control

CN(C)c1ccc(Nc2c3ccccc3nc3ccccc23)cc1
inactive: dose: 36.0 mg/kg/injection, schedule: Q01DX010 (ip), vehicle: saline 108 % of control | dose: 54.0 mg/kg/injection, schedule: Q01DX010 (ip), vehicle: saline 102 % of control and 111 % of control | dose: 80.0 mg/kg/injection, schedule: Q01DX010 (ip), vehicle: saline 97 % of control and 109 % of control | dose: 120.0 mg/kg/injection, schedule: Q01DX010 (ip), vehicle: saline 119 % of control

O[C@H](CN1CC1)[C@@H](O)CN1CC1
inactive: dose: 2.0 micrograms/kg/injection, schedule: Q01DX Z (ip), vehicle: saline 109 % of control | dose: 4.0 micrograms/kg/injection, schedule: Q01DX Z (ip), vehicle: saline 101 % of control | dose: 6.0 micrograms/kg/injection, schedule: Q01DX Z (ip), vehicle: saline 98 % of control | dose: 9.0 micrograms/kg/injection, schedule: Q01DX Z (ip), vehicle: saline 110 % of control | dose: 18.0 micrograms/kg/injection, schedule: Q01DX Z (ip), vehicle: saline 115 % of control | dose: 37.0 micrograms/kg/injection, schedule: Q01DX Z (ip), vehicle: saline 103 % of control | [1] 120 % of control | [2] 111 % of control | dose: 500.0 micrograms/kg/injection, schedule: Q01DX010 (ip), vehicle: saline 91 % of control
active: dose: 0.18 mg/kg/injection, schedule: Q01DX Z (ip), vehicle: saline 317 % of control | dose: 0.25 mg/kg/injection, schedule: Q01DX Z (ip), vehicle: saline 300 % of control | dose: 0.37 mg/kg/injection, schedule: Q01DX Z (ip), vehicle: saline 223 % of control | dose: 5.0 mg/kg/injection, schedule: Q01DX Z (ip), vehicle: saline 188 % of control | dose: 50.0 micrograms/kg/injection, schedule: Q01DX Z (ip), vehicle: saline 156 % of control | dose: 75.0 micrograms/kg/injection, schedule: Q01DX Z (ip), vehicle: saline 154 % of control and 162 % of control | dose: 180.0 micrograms/kg/injection, schedule: Q01DX Z (ip), vehicle: saline 284 % of control | dose: 210.0 micrograms/kg/injection, schedule: Q01DX Z (ip), vehicle: saline 235 % of control

NC(Cc1ccc(N(CCCl)CCCl)cc1)C(=O)O (stereo not given)
active: [3] 174 % of control | dose: 2.5 mg/kg/injection, schedule: Q01DX010 (ip), vehicle: saline 183 % of control | dose: 2.5 mg/kg/injection, schedule: Q01DX Z (ip), vehicle: carboxymethylcellulose (CMC) 162 % of control | [4] 184 % of control | dose: 5.0 mg/kg/injection, schedule: Q01DX010 (ip), vehicle: saline 166 % of control | [5] 212 % of control | dose: 7.5 mg/kg/injection, schedule: Q01DX Z (ip), vehicle: carboxymethylcellulose (CMC) 172 % of control | dose: 10.0 mg/kg/injection, schedule: Q01DX Z (ip), vehicle: carboxymethylcellulose (CMC) 181 % of control
inactive: dose: 0.31 mg/kg/injection, schedule: Q01DX Z (ip), vehicle: carboxymethylcellulose (CMC) 113 % of control | dose: 0.62 mg/kg/injection, schedule: Q01DX Z (ip), vehicle: carboxymethylcellulose (CMC) 114 % of control | dose: 15.0 mg/kg/injection, schedule: Q01DX Z (ip), vehicle: carboxymethylcellulose (CMC) 120 % of control

C[C@]12C=CC(=O)C=C1CC[C@@H]1[C@@H]2[C@@H](O)C[C@@]2(C)[C@H]1CC[C@]2(O)C(=O)CO
inactive: dose: 12.5 mg/kg/injection, schedule: Q01DX010 (sc), vehicle: steriod suspending solution 100 % of control | dose: 25.0 mg/kg/injection, schedule: Q01DX010 (sc), vehicle: steriod suspending solution 100 % of control | dose: 50.0 mg/kg/injection, schedule: Q01DX010 (sc), vehicle: steriod suspending solution 98 % of control | dose: 100.0 mg/kg/injection, schedule: Q01DX010 (sc), vehicle: steriod suspending solution 95 % of control

CS(=O)(=O)OCCCCOS(C)(=O)=O
inactive: dose: 6.25 mg/kg/injection, schedule: Q01DX010 (ip), vehicle: saline 98 % of control and 103 % of control | dose: 12.5 mg/kg/injection, schedule: Q01DX010 (ip), vehicle: saline 100 % of control and 102 % of control | dose: 25.0 mg/kg/injection, schedule: Q01DX010 (ip), vehicle: saline 93 % of control and 102 % of control | dose: 50.0 mg/kg/injection, schedule: Q01DX010 (ip), vehicle: saline 98 % of control and 100 % of control

O=C1CCC(N2C(=O)c3ccccc3C2=O)C(=O)N1 (stereo not given)
inactive: dose: 31.3 mg/kg/injection, schedule: Q01DX010 (ip), vehicle: saline 94 % of control | dose: 62.5 mg/kg/injection, schedule: Q01DX010 (ip), vehicle: saline 96 % of control | dose: 125.0 mg/kg/injection, schedule: Q01DX010 (ip), vehicle: saline 94 % of control | dose: 250.0 mg/kg/injection, schedule: Q01DX010 (ip), vehicle: saline 100 % of control

CC1CCOS(=O)O1 (stereo not given)
inactive: dose: 10.0 mg/kg/injection, schedule: Q01DX010 (ip), vehicle: saline 95 % of control | dose: 20.0 mg/kg/injection, schedule: Q01DX010 (ip), vehicle: saline 86 % of control | dose: 37.5 mg/kg/injection, schedule: Q01DX Z (ip), vehicle: saline 112 % of control | dose: 40.0 mg/kg/injection, schedule: Q01DX010 (ip), vehicle: saline 87 % of control | dose: 75.0 mg/kg/injection, schedule: Q01DX Z (ip), vehicle: saline 120 % of control | dose: 100.0 mg/kg/injection, schedule: Q01DX Z (ip), vehicle: saline 103 % of control | dose: 150.0 mg/kg/injection, schedule: Q01DX Z (ip), vehicle: saline 87 % of control

O=C(O)CCCc1ccc(N(CCCl)CCCl)cc1
inactive: [3] 101 % of control | dose: 3.0 mg/kg/injection, schedule: Q01DX Z (ip), vehicle: carboxymethylcellulose (CMC) 106 % of control | [4] 112 % of control | [5] 119 % of control | dose: 6.25 mg/kg/injection, schedule: Q01DX Z (ip), vehicle: carboxymethylcellulose (CMC) 115 % of control | dose: 12.5 mg/kg/injection, schedule: Q01DX Z (ip), vehicle: carboxymethylcellulose (CMC) 118 % of control

N#Cc1cn(C2OC(CO)C(O)C2O)c2ncnc(N)c12 (stereo not given)
inactive: dose: 31.3 micrograms/kg/injection, schedule: Q01DX010 (ip), vehicle: saline 95 % of control | [1] 99 % of control | [2] 97 % of control
